{"source": "patent US20070142395A1", "about": "“Treatment of sexual dysfunction with 1-[3-[4-(3-chlorophenyl)-1-piperazinyl]propyl]-5-methoxy-3,4-dihydro-2(1H)-quinolone or salt thereof” (Vela Pharmaceuticals, Inc., priority 2005, published 2007)", "origin": "cited, not measured here", "conditions": "SSRI/SNRI antidepressant therapy; Montejo et al. 2001; cited from earlier work"}
{"smiles": "CN(C)CCCC1(c2ccc(F)cc2)OCc2cc(C#N)ccc21", "note": "(centres unmarked) [citalopram]", "values": [{"measurement": "incidence of sexual dysfunction as side effect", "result": 72.7, "unit": "%"}]}
{"smiles": "CNCCC(Oc1ccc(C(F)(F)F)cc1)c1ccccc1", "note": "(centres unmarked) [fluoxetine]", "values": [{"measurement": "incidence of sexual dysfunction as side effect", "result": 57.7, "unit": "%"}]}
{"smiles": "Fc1ccc([C@@H]2CCNC[C@H]2COc2ccc3c(c2)OCO3)cc1", "note": "[paroxetine]", "values": [{"measurement": "incidence of sexual dysfunction as side effect", "result": 70.7, "unit": "%"}]}
{"smiles": "CN[C@H]1CC[C@@H](c2ccc(Cl)c(Cl)c2)c2ccccc21", "note": "[sertraline]", "values": [{"measurement": "incidence of sexual dysfunction as side effect", "result": 62.9, "unit": "%"}]}
{"smiles": "COc1ccc(C(CN(C)C)C2(O)CCCCC2)cc1", "note": "(centres unmarked) [venlafaxine]", "values": [{"measurement": "incidence of sexual dysfunction as side effect", "result": 67.3, "unit": "%"}]}
